Converted amounts (≈) assume the structure as drawn.
Columns and labels:
[1] = Acute toxicity in Albino mouse assessed as change in ALP level at 50 to 2000 mg/kg, po measured after 14 days (reference value: 28 IU/L); assay type: organism-based; details: in vivo, 336 h, dose 50-2000 mg/kg, time 14 day
[2] = Hepatotoxicity in Albino mouse assessed as change in central vein at 50 to 2000 mg/kg, po measured after 14 days; assay type: toxicity, organism-based; details: in vivo, 336 h, dose 50-2000 mg/kg, time 14 day
[3] = Pulmonary toxicity in Albino mouse assessed as appearance of goblet cells at 50 to 2000 mg/kg, po measured after 14 days; assay type: organism-based; details: in vivo, 336 h, dose 50-2000 mg/kg, time 14 day
[4] = Pulmonary toxicity in Albino mouse assessed as change in alveoli structure at 50 to 2000 mg/kg, po measured after 14 days; assay type: organism-based; details: in vivo, 336 h, dose 50-2000 mg/kg, time 14 day
[5] = Renal toxicity in Albino mouse assessed as structural absorbability abnormalities at 50 to 2000 mg/kg, po measured after 14 days; assay type: organism-based; details: in vivo, 336 h, dose 50-2000 mg/kg, time 14 day
[6] = Acute toxicity in Albino mouse assessed as change in lymphocytes at 50 to 2000 mg/kg, po measured after 14 days (reference value: 21%); assay type: organism-based; details: in vivo, 336 h, dose 50-2000 mg/kg, time 14 day
[7] = Cytotoxicity against african green monkey Vero cells assessed as cell viability at 12.5 ug/ml by MTT assay; assay type: toxicity, cell-based; details: chlorocebus sabaeus, at 12.5 µg/mL, read-out: Activity
[8] = Acute toxicity in Albino mouse assessed as change in monocytes at 50 to 2000 mg/kg, po measured after 14 days (reference value: 1%); assay type: organism-based; details: in vivo, 336 h, dose 50-2000 mg/kg, time 14 day
[9] = Acute toxicity in Albino mouse assessed as change in SGPT count at 50 to 2000 mg/kg, po measured after 14 days (reference value: 52 IU/L); assay type: organism-based; details: in vivo, 336 h, dose 50-2000 mg/kg, time 14 day
[10] = Acute toxicity in Albino mouse assessed as change in serum creatine level at 50 to 2000 mg/kg, po measured after 14 days (reference value: 0.9 mg/dl); assay type: organism-based; details: in vivo, 336 h, dose 50-2000 mg/kg, time 14 day
[11] = Cytotoxicity against african green monkey Vero cells assessed as cell viability at 3.125 ug/ml by MTT assay; assay type: toxicity, cell-based; details: chlorocebus sabaeus, at 3.125 µg/mL, read-out: Activity
[12] = Acute toxicity in Albino mouse assessed as change in hemoglobin level at 50 to 2000 mg/kg, po measured after 14 days (reference value: 12.8 g/dl); assay type: organism-based; details: in vivo, 336 h, dose 50-2000 mg/kg, time 14 day
[13] = Hepatotoxicity in Albino mouse assessed as change in portal tracks at 50 to 2000 mg/kg, po measured after 14 days; assay type: toxicity, organism-based; details: in vivo, 336 h, dose 50-2000 mg/kg, time 14 day
[14] = Acute toxicity in Albino mouse assessed as change in eosinophils at 50 to 2000 mg/kg, po measured after 14 days (reference value: 3%); assay type: organism-based; details: in vivo, 336 h, dose 50-2000 mg/kg, time 14 day
[15] = Acute toxicity in Albino mouse assessed as mortality at 300 mg/kg, po after 14 days; assay type: organism-based; details: in vivo, 336 h, time 14 day
[16] = test system: Mycobacterium tuberculosis; assay: Antitubercular activity against Mycobacterium tuberculosis H37Rv incubated for 5 days by microtiter plate method; assay type: functional; details: 120 h, time 5 day
[17] = Hepatotoxicity in Albino mouse assessed as change in hepatic artery at 50 to 2000 mg/kg, po measured after 14 days; assay type: toxicity, organism-based, Liver; details: in vivo, 336 h, dose 50-2000 mg/kg, time 14 day
[18] = Renal toxicity in Albino mouse assessed as extravasation of RBC at 50 to 2000 mg/kg, po measured after 14 days; assay type: organism-based, Erythrocyte; details: in vivo, 336 h, dose 50-2000 mg/kg, time 14 day
[19] = Acute toxicity in po dosed Albino mouse assessed as mortality after 14 days; assay type: organism-based; details: in vivo, time 14 day
[20] = Hepatotoxicity in Albino mouse assessed as change in portal vein at 50 to 2000 mg/kg, po measured after 14 days; assay type: toxicity, organism-based; details: in vivo, 336 h, dose 50-2000 mg/kg, time 14 day
[21] = Acute toxicity in Albino mouse assessed as change in total leucocyte count at 50 to 2000 mg/kg, po measured after 14 days (reference value: 7400 mm3); assay type: organism-based; details: in vivo, 336 h, dose 50-2000 mg/kg, time 14 day
[22] = Cytotoxicity against african green monkey Vero cells assessed as cell viability at 100 ug/ml by MTT assay; assay type: toxicity, cell-based; details: chlorocebus sabaeus, at 100 µg/mL, read-out: Activity
[23] = Acute toxicity in Albino mouse assessed as change in serum urea level at 50 to 2000 mg/kg, po measured after 14 days (reference value: 46 mg/dl); assay type: organism-based; details: in vivo, 336 h, dose 50-2000 mg/kg, time 14 day
[24] = Acute toxicity in Albino mouse assessed as change in SGOT count at 50 to 2000 mg/kg, po measured after 14 days (reference value: 42 IU/L); assay type: organism-based; details: in vivo, 336 h, dose 50-2000 mg/kg, time 14 day
[25] = Acute toxicity in Albino mouse assessed as change in RBC count measured per million cells at 50 to 2000 mg/kg, po measured after 14 days (reference value: 9.15 microL); assay type: organism-based, Erythrocyte; details: in vivo, 336 h, dose 50-2000 mg/kg, time 14 day
[26] = Cytotoxicity against african green monkey Vero cells assessed as cell viability at 50 ug/ml by MTT assay; assay type: toxicity, cell-based; details: chlorocebus sabaeus, at 50 µg/mL, read-out: Activity
[27] = Renal toxicity in Albino mouse assessed as change in renal tubules at 50 to 2000 mg/kg, po measured after 14 days; assay type: organism-based; details: in vivo, 336 h, dose 50-2000 mg/kg, time 14 day
[28] = Renal toxicity in Albino mouse assessed as change in renal corpuscles at 50 to 2000 mg/kg, po measured after 14 days; assay type: organism-based; details: in vivo, 336 h, dose 50-2000 mg/kg, time 14 day
[29] = Pulmonary toxicity in Albino mouse assessed as change in alveolar sacs at 50 to 2000 mg/kg, po measured after 14 days; assay type: organism-based; details: in vivo, 336 h, dose 50-2000 mg/kg, time 14 day
[30] = Cytotoxicity against african green monkey Vero cells assessed as cell viability at 6.25 ug/ml by MTT assay; assay type: toxicity, cell-based; details: chlorocebus sabaeus, at 6.25 µg/mL, read-out: Activity
[31] = Acute toxicity in Albino mouse assessed as change in ESR at 50 to 2000 mg/kg, po measured after 14 days (reference value: 10 millimeter); assay type: organism-based; details: in vivo, 336 h, dose 50-2000 mg/kg, time 14 day
[32] = Hepatotoxicity in Albino mouse assessed as change in bile duct at 50 to 2000 mg/kg, po measured after 14 days; assay type: toxicity, organism-based, Liver; details: in vivo, 336 h, dose 50-2000 mg/kg, time 14 day
[33] = Renal toxicity in Albino mouse assessed as change in proximal convoluted tubules at 50 to 2000 mg/kg, po measured after 14 days; assay type: organism-based; details: in vivo, 336 h, dose 50-2000 mg/kg, time 14 day
[34] = Cytotoxicity against african green monkey Vero cells assessed as cell viability at 25 ug/ml by MTT assay; assay type: toxicity, cell-based; details: chlorocebus sabaeus, at 25 µg/mL, read-out: Activity
[35] = Acute toxicity in Albino mouse assessed as mortality at 2000 mg/kg, po after 2 to 4 hrs; assay type: organism-based; details: in vivo, time 2-4 hrs
[36] = Hepatotoxicity in Albino mouse assessed as change in hepatocytes at 50 to 2000 mg/kg, po measured after 14 days; assay type: toxicity, organism-based; details: in vivo, 336 h, dose 50-2000 mg/kg, time 14 day
[37] = Renal toxicity in Albino mouse assessed as change in tubular capillaries at 50 to 2000 mg/kg, po measured after 14 days; assay type: organism-based; details: in vivo, 336 h, dose 50-2000 mg/kg, time 14 day
[38] = Acute toxicity in Albino mouse assessed as change in platelet count at 50 to 2000 mg/kg, po measured after 14 days (reference value: 3.24 mm3); assay type: organism-based; design: unit not given here; details: in vivo, 336 h, dose 50-2000 mg/kg, time 14 day
[39] = Renal toxicity in Albino mouse assessed as change in distal convoluted tubules at 50 to 2000 mg/kg, po measured after 14 days; assay type: organism-based; details: in vivo, 336 h, dose 50-2000 mg/kg, time 14 day
[40] = Cytotoxicity against african green monkey Vero cells by MTT assay; assay type: toxicity, cell-based; details: chlorocebus sabaeus
[41] = Pulmonary toxicity in Albino mouse assessed as appearance of cilia at 50 to 2000 mg/kg, po measured after 14 days; assay type: organism-based; details: in vivo, 336 h, dose 50-2000 mg/kg, time 14 day
[42] = Pulmonary toxicity in Albino mouse assessed as change in squamous pneumocytes at 50 to 2000 mg/kg, po measured after 14 days; assay type: organism-based; details: in vivo, 336 h, dose 50-2000 mg/kg, time 14 day
[43] = Renal toxicity in Albino mouse assessed as change in Bowman's capsule at 50 to 2000 mg/kg, po measured after 14 days; assay type: organism-based; details: in vivo, 336 h, dose 50-2000 mg/kg, time 14 day
[44] = Pulmonary toxicity in Albino mouse assessed as change in bronchi structure at 50 to 2000 mg/kg, po measured after 14 days; assay type: organism-based; details: in vivo, 336 h, dose 50-2000 mg/kg, time 14 day
[45] = Acute toxicity in Albino mouse assessed as change in neutrophils at 50 to 2000 mg/kg, po measured after 14 days (reference value: 75%); assay type: organism-based; details: in vivo, 336 h, dose 50-2000 mg/kg, time 14 day
[46] = Acute toxicity in Albino mouse assessed as change in LDH level at 50 to 2000 mg/kg, po measured after 14 days (reference value: 1052 IU/L); assay type: organism-based; details: in vivo, 336 h, dose 50-2000 mg/kg, time 14 day

## CCOc1cc(C2C(Cl)C(=O)N2C2=C(Cl)C(=O)c3ccccc3C2=O)ccc1O (stereo unspecified)
[1]
  Activity: 832.75 IU/L
[2]
  Activity: Non-Toxic
[3]
  Activity: Non-Toxic
[4]
  Activity: Non-Toxic
[5]
  Activity: Non-Toxic
[6]
  Activity: 34%
[7]
  viability at 12.5 ug/ml: 100%
[8]
  Activity: 1%
[9]
  Activity: 75.33 IU/L
[10]
  Activity: < 0.3 mg/dL
[11]
  viability at 3.125 ug/ml: 100%
[12]
  Activity: 12.5 g/dL
[13]
  Activity: Non-Toxic
[14]
  Activity: 3%
[15]
  Activity: Non-Toxic
[16]
  MIC: 14.5 µM (≈ 6.25 µg/mL)
[17]
  Activity: Non-Toxic
[18]
  Activity: Non-Toxic
[19]
  LD50 at 336 h: 300 mg/kg
[20]
  Activity: Non-Toxic
[21]
  Activity: 8200 mm3
[22]
  viability at 100 ug/ml: 10.4%
[23]
  Activity: 35.72 mg/dL
[24]
  Activity: 168.67 IU/L
[25]
  Activity: 8.95
[26]
  viability at 50 ug/ml: 30.6%
[27]
  Activity: Non-Toxic
[28]
  Activity: Non-Toxic
[29]
  Activity: Non-Toxic
[30]
  viability at 6.25 ug/ml: 100%
[31]
  Activity: 11 millimeter/hr
[32]
  Activity: Non-Toxic
[33]
  Activity: Non-Toxic
[34]
  viability at 25 ug/ml: 67.8%
[35]
  Activity: Toxic
[36]
  Activity: Non-Toxic
[37]
  Activity: Non-Toxic
[38]
  Activity: 4.9
[39]
  Activity: Non-Toxic
[40]
  Activity: Dose-Dependent Effect
[41]
  Activity: Non-Toxic
[42]
  Activity: Non-Toxic
[43]
  Activity: Non-Toxic
[44]
  Activity: Non-Toxic
[45]
  Activity: 66%
[46]
  Activity: 470.21 IU/L

From ChEMBL document CHEMBL5500384, “New synergistic benzoquinone scaffolds as inhibitors of mycobacterial cytochrome bc1 complex to treat multi-drug resistant tuberculosis” (Eur J Med Chem, 2024)
